# Source: patent publication US10414763B2 (CANCER RESEARCH TECHNOLOGY LIMITED, priority 2014, dated 2019)
# Target: T1, full-length human PKCι (Homo sapiens, UniProt P41743)
# T1 construct: Recombinant, full-length human PKCι expressed in Sf21 insect cells is also commercially available; purchased EMD Millipore; host or cells: Sf21 insect cells (baculovirus)
# T1 sequence (P41743 1-596): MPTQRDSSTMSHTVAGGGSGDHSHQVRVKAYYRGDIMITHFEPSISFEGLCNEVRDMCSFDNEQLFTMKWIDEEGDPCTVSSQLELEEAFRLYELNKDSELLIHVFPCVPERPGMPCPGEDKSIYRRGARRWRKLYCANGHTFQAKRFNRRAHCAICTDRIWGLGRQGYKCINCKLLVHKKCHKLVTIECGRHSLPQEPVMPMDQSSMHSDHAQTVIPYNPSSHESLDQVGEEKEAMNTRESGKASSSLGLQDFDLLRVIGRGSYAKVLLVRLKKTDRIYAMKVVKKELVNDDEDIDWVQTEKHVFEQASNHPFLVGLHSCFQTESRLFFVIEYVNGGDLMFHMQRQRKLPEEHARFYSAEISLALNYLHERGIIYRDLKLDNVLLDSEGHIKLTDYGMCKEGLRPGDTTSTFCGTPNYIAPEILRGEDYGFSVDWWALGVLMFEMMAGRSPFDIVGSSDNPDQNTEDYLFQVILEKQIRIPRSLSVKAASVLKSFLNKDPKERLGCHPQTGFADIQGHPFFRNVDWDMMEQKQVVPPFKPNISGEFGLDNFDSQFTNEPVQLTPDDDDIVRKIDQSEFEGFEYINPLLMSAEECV
# Test: PKCι IC50 IMAP fluorescence polarisation assay, full-length enzyme, 150 μM ATP
# Format: biochemical
# Conditions: read-out: IC50 in IMAP assay against full length PKCi at 150 μM ATP
# How it was run: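 IMAP fluorescence polarisation kinase assay: 15 pM baculovirus-expressed human PKCiota with 100 nM FAM-pseudosubstrate peptide and 150 μM ATP, 1 h at 25 °C. IMAP detection reagent then 2 h at 25 °C before FP measurement. Inhibition referenced to no-compound and no-enzyme controls for IC50 fitting.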
row,SMILES,IC50 [µM]
1,"Cc1cccc(Nc2cc(-c3nc(N[C@H]4CCNCC4(C)C)c4c(C5CCC5)cncc4n3)ccn2)n1 [Example 271, {5-Cyclobutyl-2-[2-(6-methyl-pyridin-2-ylamino)-pyridin-4-yl]-pyrido[3,4-d]pyrimidin-4-yl}-((S)-3,3-dimethyl-piperidin-4-yl)-amine]",< 0.1
2,Cc1nc(Nc2cc(-c3nc(N[C@H]4CCNCC4(C)C)c4c(C5CCC5)cncc4n3)ccn2)ccc1C#N [Example 272],< 0.1
3,"CC1(C)CNCC[C@@H]1Nc1nc(-c2ccnc(Nc3nc4ccccc4o3)c2)nc2cncc(C3CCC3)c12 [Example 274, {2-[2-(Benzoxazol-2-ylamino)-pyridin-4-yl]-5-cyclobutyl-pyrido[3,4-d]pyrimidin-4-yl}-((S)-3,3-dimethyl-piperidin-4-yl)-amine]",< 0.1
4,"CC1(C)CNCC[C@@H]1Nc1nc(-c2ccnc(Nc3nc4ccccn4n3)c2)nc2cncc(C3CCC3)c12 [Example 275, {5-Cyclobutyl-2-[2-([1,2,4]triazolo[1,5-a]pyridin-2-ylamino)-pyridin-4-yl]-pyrido[3,4-d]pyrimidin-4-yl}-((S)-3,3-dimethyl-piperidin-4-yl)-amine]",< 0.1
5,"CC1(C)CNCC[C@@H]1Nc1nc(-c2ccnc(Nc3nc(F)c(F)cc3F)c2)nc2cncc(C3CC3)c12 [Example 278, {5-Cyclopropyl-2-[2-(3,5,6-trifluoro-pyridin-2-ylamino)-pyridin-4-yl]-pyrido[3,4-d]pyrimidin-4-yl}-((S)-3,3-dimethyl-piperidin-4-yl)-amine]",< 0.1
6,Cn1c(Nc2cc(-c3nc(N[C@H]4CCNCC4(C)C)c4c(C5CCC5)cncc4n3)ccn2)nc2ccccc21 [Example 281],< 0.1
7,"Cn1nc(Nc2cc(-c3nc(N[C@H]4CCNCC4(C)C)c4c(C5CCC5)cncc4n3)ccn2)c2ccccc21 [Example 284, {5-Cyclobutyl-2-[2-(1-methyl-1H-indazol-3-ylamino)-pyridin-4-yl]-pyrido[3,4-d]pyrimidin-4-yl}-((S)-3,3-dimethyl-piperidin-4-yl)-amine]",< 0.1
8,"CC1(C)CNCC[C@@H]1Nc1nc(-c2cccc(Nc3nc(F)ccc3F)c2)nc2cncc(C3CCC3)c12 [Example 315, {5-Cyclobutyl-2-[3-(3,6-difluoro-pyridin-2-ylamino)-phenyl]-pyrido[3,4-d]pyrimidin-4-yl}-((S)-3,3-dimethyl-piperidin-4-yl)-amine]",0.1 to 1
9,"CC1(C)CNCC[C@@H]1Nc1nc(-c2ccnc(Nc3ncc(Cl)cc3F)c2)nc2cncc(C3CCC3)c12 [Example 316, {2-[2-(5-Chloro-3-fluoro-pyridin-2-ylamino)-pyridin-4-yl]-5-cyclobutyl-pyrido[3,4-d]pyrimidin-4-yl}-((S)-3,3-dimethyl-piperidin-4-yl)-amine]",< 0.1
10,"CC1(C)CNCC[C@@H]1Nc1nc(-c2ccnc(Nc3cccc(C#N)n3)c2)nc2cncc(C3CCC3)c12 [Example 317, 6-{4-[5-Cyclobutyl-4-((S)-3,3-dimethyl-piperidin-4-ylamino)-pyrido[3,4-d]pyrimidin-2-yl]-pyridin-2-ylamino}-pyridine-2-carbonitrile]",< 0.1
11,"CC1(C)CNCC[C@@H]1Nc1nc(-c2ccnc(Nc3ccc4cccc(F)c4n3)c2)nc2cncc(C3CCC3)c12 [Example 318, {5-Cyclobutyl-2-[2-(8-fluoro-quinolin-2-ylamino)-pyridin-4-yl]-pyrido[3,4-d]pyrimidin-4-yl}-((S)-3,3-dimethyl-piperidin-4-yl)-amine]",< 0.1
12,"CC1(C)CNCC[C@@H]1Nc1nc(-c2ccnc(Nc3ncc(Cl)cc3F)c2)nc2cncc(C3CC3)c12 [Example 319, {2-[2-(5-Chloro-3-fluoro-pyridin-2-ylamino)-pyridin-4-yl]-5-cyclopropyl-pyrido[3,4-d]pyrimidin-4-yl}-((S)-3,3-dimethyl-piperidin-4-yl)-amine]",< 0.1
13,"CC1(C)CNCC[C@@H]1Nc1nc(-c2ccnc(Nc3ncc(C#N)cc3F)c2)nc2cncc(C3CCC3)c12 [Example 320, 6-{4-[5-Cyclobutyl-4-((S)-3,3-dimethyl-piperidin-4-ylamino)-pyrido[3,4-d]pyrimidin-2-yl]-pyridin-2-ylamino}-5-fluoro-nicotinonitrile]",< 0.1
14,"CC1(C)CNCC[C@@H]1Nc1nc(-c2cccc(Nc3ccccn3)c2)nc2cncc(C3CCC3)c12 [Example 321, {5-Cyclobutyl-2-[3-(pyridin-2-ylamino)-phenyl]-pyrido[3,4-d]pyrimidin-4-yl}-((S)-3,3-dimethyl-piperidin-4-yl)-amine]",0.1 to 1
15,"Cc1cc(C#N)cnc1Nc1cc(-c2nc(N[C@H]3CCNCC3(C)C)c3c(C4CCC4)cncc3n2)ccn1 [Example 323, 6-{4-[5-Cyclobutyl-4-((S)-3,3-dimethyl-pipcridin-4-ylamino)-pyrido[3,4-d]pyrimidin-2-yl]-pyridin-2-ylamino}-5-methyl-nicotinonitrile]",< 0.1
16,"CC1(C)CNCC[C@@H]1Nc1nc(-c2cccc(Nc3cnccn3)c2)nc2cncc(C3CCC3)c12 [Example 324, 5-Cyclobutyl-N-[(4S)-3,3-dimethyl-4-piperidyl]-2-[3-(pyrazin-2-ylamino)phenyl]pyrido[3,4-d]pyrimidin-4-amine]",1 to 10
17,"CC1(C)CNCC[C@@H]1Nc1nc(-c2ccnc(Nc3nc(F)cc(F)c3F)c2)nc2cncc(C3CC3)c12 [Example 325, 5-Cyclopropyl-N-[(4S)-3,3-dimethyl-4-piperidyl]-2-[2-[(3,4,6-trifluoro-2-pyridyl)amino]-4-pyridyl]pyrido[3,4-d]pyrimidin-4-amine]",< 0.1
18,"CC1(C)CNCC[C@@H]1Nc1nc(-c2ccnc(Nc3nc(F)cc(F)c3F)c2)nc2cncc(C3CCC3)c12 [Example 326, 5-Cyclobutyl-N-[(4S)-3,3-dimethyl-4-piperidyl]-2-[2-[(3,4,6-trifluoro-2-pyridyl)amino]-4-pyridyl]pyrido[3,4-d]pyrimidin-4-amine]",< 0.1
19,"CC1(C)CNCC[C@@H]1Nc1nc(-c2ccnc(Nc3nc4ccccc4o3)c2)nc2cncc(C3CC3)c12 [Example 327, N-[4-[5-Cyclopropyl-4-[[(4S)-3,3-dimethyl-4-piperidyl]amino]pyrido[3,4-d]pyrimidin-2-yl]-2-pyridyl]-1,3-benzoxazol-2-amine]",< 0.1
20,"CC1(C)CNCC[C@@H]1Nc1nc(-c2ccnc(Nc3cc4ccccn4n3)c2)nc2cncc(C3CC3)c12 [Example 328, 5-Cyclopropyl-N-[(4S)-3,3-dimethyl-4-piperidyl]-2-[2-(pyrazolo[1,5-a]pyridin-2-ylamino)-4-pyridyl]pyrido[3,4-d]pyrimidin-4-amine]",< 0.1
21,"CC1(C)CNCC[C@@H]1Nc1nc(-c2ccnc(Nc3ncn(-c4ccccc4)n3)c2)nc2cncc(C3CCC3)c12 [Example 329, 5-Cyclobutyl-N-[(4S)-3,3-dimethyl-4-piperidyl]-2-[2-[(1-phenyl-1,2,4-triazol-3-yl)amino]-4-pyridyl]pyrido[3,4-d]pyrimidin-4-amine]",< 0.1
22,"c1ccc(-n2cnc(Nc3cc(-c4nc(N5CCNCC5)c5c(C6CCC6)cncc5n4)ccn3)n2)cc1 [Example 330, 4-(5-Cyclobutyl-4-piperazin-1-yl-pyrido[3,4-d]pyrimidin-2-yl)-N-(1-phenyl-1,2,4-triazol-3-yl)pyridin-2-amine]",< 0.1
23,"CN(c1nc(-c2ccnc(Nc3nc(F)ccc3F)c2)nc2cncc(C3CC3)c12)[C@H]1CCNCC1(C)C [Example 331, 5-Cyclopropyl-2-[2-[(3,6-difluoro-2-pyridyl)amino]-4-pyridyl]-N-[(4S)-3,3-dimethyl-4-piperidyl]-N-methyl-pyrido[3,4-d]pyrimidin-4-amine]",< 0.1
24,"CC1(C)CNCC[C@@H]1Nc1nc(-c2ccnc(Nc3nc4ccc(F)cc4o3)c2)nc2cncc(C3CC3)c12 [Example 332, N-[4-[5-Cyclopropyl-4-[[(4S)-3,3-dimethyl-4-piperidyl]amino]pyrido [3,4-d]pyrirnidin-2-yl]-2-pyridyl]-6-fluoro-1,3-benzoxazol-2-amine]",< 0.1
25,"CC1(C)CNCC[C@@H]1Nc1nc(-c2ccnc(Nc3ncc(C#N)cc3F)c2)nc2cncc(C3CC3)c12 [Example 333, 6-[[4-[5-Cyclopropyl-4-[[(4S)-3,3-dimethyl-4-piperidyl]amino]pyrido[3,4-d]pyrimidin-2-yl]-2-pyridyl]amino]-5-fluoro-pyridine-3-carbonitrile]",< 0.1
26,"CC1(C)CNCC[C@@H]1Nc1nc(-c2ccnc(Nc3ncccc3Cl)c2)nc2cncc(C3CCC3)c12 [Example 336, 2-[2-[(3-Chloro-2-pyridyl)amino]-4-pyridyl]-5-cyclobutyl-N-[(4S)-3,3-dimethyl-4-piperidyl]pyrido [3,4-d]pyrimidin-4-amine]",< 0.1
27,"CC1(C)CNCC[C@@H]1Nc1nc(-c2ccnc(Nc3ncc(Cl)cc3Cl)c2)nc2cncc(C3CCC3)c12 [Example 337, 5-Cyclobutyl-2-[2-[(3,5-dichloro-2-pyridyl)amino]-4-pyridyl]-N-[(4S)-3,3-dimethyl-4-piperidyl]pyrido[3,4-d]pyrimidin-4-amine]",< 0.1
